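All cell lines were grown in 96-well plates and treated with compound for 48 hours. GI50 = concentration required for 50% inhibition of growth. TGI is the concentration that stops growth completely.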
What was measured:
Assay in all cases: NCI anticancer screen, dose series, 48 h
CAKI-1 renal = tested on: CAKI-1 renal
DU-145 prostate = tested on: DU-145 prostate
HOP-62 NSCLC = tested on: HOP-62 NSCLC
HS 578T breast = tested on: HS 578T breast
MOLT-4 leukemia = tested on: MOLT-4 leukemia
NCI-H23 lung = tested on: NCI-H23 lung
NCI-H522 lung = tested on: NCI-H522 lung
OVCAR-3 ovarian = tested on: OVCAR-3 ovarian
OVCAR-5 ovarian = tested on: OVCAR-5 ovarian
SK-OV-3 ovarian = tested on: SK-OV-3 ovarian

| Structure (SMILES) | GI50 (CAKI-1 renal) | TGI (CAKI-1 renal) | GI50 (DU-145 prostate) | TGI (DU-145 prostate) | GI50 (HOP-62 NSCLC) | TGI (HOP-62 NSCLC) | GI50 (HS 578T breast) | TGI (HS 578T breast) | GI50 (MOLT-4 leukemia) | TGI (MOLT-4 leukemia) | GI50 (NCI-H23 lung) | TGI (NCI-H23 lung) | GI50 (NCI-H522 lung) | TGI (NCI-H522 lung) | GI50 (OVCAR-3 ovarian) | TGI (OVCAR-3 ovarian) | GI50 (OVCAR-5 ovarian) | TGI (OVCAR-5 ovarian) | GI50 (SK-OV-3 ovarian) | TGI (SK-OV-3 ovarian) |
| --- | --- | --- | --- | --- | --- | --- | --- | --- | --- | --- | --- | --- | --- | --- | --- | --- | --- | --- | --- | --- |
| COc1ccc(C(=O)COC(=O)[C@H](C[Se][Se]C[C@H](NC(=O)c2ccc(Br)cc2F)C(=O)OCC(=O)c2ccc(OC)cc2)NC(=O)c2ccc(Br)cc2F)cc1 | 1 µM | 2.97 µM | 0.843 µM | 2.68 µM | 0.415 µM | 1.83 µM | 0.362 µM | 0.966 µM | 2.63 µM | 17.8 µM | 0.412 µM | 1.81 µM | 0.66 µM | 2.02 µM | 0.88 µM | 2.31 µM | 0.816 µM | 2.54 µM | 0.441 µM | 1.64 µM |
| C=CC(C1=CC(=O)C(OC)=CC1=O)c1ccccc1 (centres undefined) | – | 31.7 µM | – | 30.2 µM | – | 32.4 µM | – | 69.7 µM | – | 5.81 µM | – | 32.5 µM | – | 23.8 µM | – | 31.2 µM | – | 39 µM | – | 42.2 µM |
| NC1CCC(Nc2nc(NCc3ccc(-c4cccs4)nc3)c3ncn(C4CCCC4)c3n2)CC1 (centres undefined) | 1.62 µM | 9.92 µM | 0.0933 µM | 4.42 µM | 0.0276 µM | 0.0987 µM | 0.0269 µM | 2.28 µM | 0.025 µM | 0.502 µM | 0.0383 µM | 0.319 µM | < 0.016 µM | 0.049 µM | 0.0492 µM | 0.731 µM | 0.0302 µM | 2.58 µM | 0.126 µM | 4.28 µM |
| C[C@H](Nc1ncnc2nc[nH]c12)c1cc2ccc(F)cc2nc1-c1ccccn1 | 33.7 µM | > 100 µM | > 100 µM | > 100 µM | > 57.8 µM | > 100 µM | 18.7 µM | > 100 µM | 52.2 µM | > 100 µM | > 100 µM | > 100 µM | > 54.1 µM | > 100 µM | 34.3 µM | > 100 µM | > 77.2 µM | > 100 µM | 48.3 µM | > 100 µM |
| O=C(CN(/C=C/C(=O)C(F)(F)F)c1ccc(Cl)cc1)c1ccccc1 | 0.933 µM | 22.8 µM | 18 µM | 43.4 µM | 11.4 µM | 24.5 µM | 24.3 µM | 68.1 µM | 39.7 µM | > 100 µM | 8.75 µM | 27.2 µM | 6.52 µM | 26.3 µM | 9.15 µM | 46.3 µM | 15.6 µM | 40.7 µM | 51.2 µM | > 100 µM |
| CC(=O)c1cc(C(=O)c2ccc3c(c2)Sc2ccccc2N3)c2c(C)cc(C)cn12 | 0.529 µM | 72.9 µM | 0.395 µM | > 47.3 µM | 0.394 µM | > 63 µM | 0.343 µM | > 36 µM | 0.465 µM | > 100 µM | 0.482 µM | > 100 µM | 0.16 µM | 1.08 µM | 0.222 µM | 0.596 µM | 0.794 µM | > 100 µM | 0.342 µM | – |
| Clc1ccc2c(c1)N(CCCN1CCCC1)c1ccccc1S2 | 11 µM | 22.9 µM | 8.61 µM | 20.9 µM | 12.6 µM | 26.6 µM | 4.92 µM | 30.8 µM | 4.09 µM | 15.9 µM | 10.2 µM | 24 µM | 2.23 µM | 7.11 µM | 10.4 µM | 22.9 µM | 12.7 µM | 28.3 µM | 6.22 µM | 19 µM |
| C[C@]12CC[C@H](O)C[C@H]1CC[C@@H]1[C@@H]2CC[C@]2(C)[C@@H](C3=CC(=O)OC3)[C@@H](O)C[C@]12O | – | 3.15 µM | – | 2.71 µM | – | 2.48 µM | – | > 21.8 µM | – | 1.95 µM | – | 2.47 µM | – | 2.67 µM | – | 1.73 µM | – | 8.03 µM | – | 6.73 µM |
| Cc1cc(O)ccc1C1=NN(c2ccc(S(C)(=O)=O)cc2)C(=O)CC1 | 2.79 µM | 16.5 µM | 24.7 µM | > 100 µM | 9.07 µM | > 100 µM | 4.15 µM | > 100 µM | 14.3 µM | > 100 µM | 38.5 µM | > 100 µM | 2.53 µM | 8.6 µM | 3.41 µM | 9.44 µM | 53.8 µM | > 100 µM | 9.77 µM | > 100 µM |
| CS(=O)(=O)Nc1ccc(-c2cc(-c3ccccc3)cc(C(N)=O)c2N)cc1 | > 22.6 µM | > 25 µM | > 25 µM | > 25 µM | > 25 µM | > 25 µM | > 22.4 µM | > 25 µM | 19.5 µM | > 25 µM | > 25 µM | > 25 µM | 15.3 µM | > 25 µM | > 23.8 µM | > 25 µM | > 25 µM | > 25 µM | > 25 µM | > 25 µM |
| COc1cc(-c2nc3ccccc3s2)ccc1NC(=O)COc1ccc(Cl)cc1 | 6.95 µM | > 100 µM | 8.28 µM | > 100 µM | 4.15 µM | 34.3 µM | 3.73 µM | > 100 µM | > 100 µM | > 100 µM | 3.01 µM | 25.6 µM | 2.71 µM | 12.1 µM | 6.8 µM | > 100 µM | 13.4 µM | > 100 µM | 36.5 µM | > 100 µM |
| O=[N+]([O-])c1ccc(Sc2ncnc3nc[nH]c23)c2nonc12 | 5.97 µM | 33.7 µM | 5.16 µM | > 100 µM | 4.97 µM | 20.7 µM | 15.4 µM | 77 µM | 2.07 µM | 15.7 µM | 10.3 µM | 23.6 µM | 1.39 µM | 2.71 µM | 0.714 µM | 16.6 µM | 10.3 µM | 22.6 µM | 3.75 µM | 16.2 µM |
